Results: US20160368879A1, “PHOTOACID GENERATOR, AND RESIN COMPOSITION FOR PHOTOLITHOGRAPHY” (SAN-APRO LTD., priority 2013, published 2016)

Legend:
Type in all cases: physicochemical
[1] = Molar extinction coefficient of i-line (365 nm), UV-visible absorbance in acetonitrile; conditions: 0.25 mmol/L in acetonitrile, cell length 1 cm
Description: The synthesized photoacid generator was diluted to 0.25 mmol/L with acetonitrile, and using an ultraviolet-visible spectrophotometer (UV-2550 available from SHIMADZU CORPORATION), the absorbance in a range of 200 nm to 500 nm was measured with a cell having an optical path length (a cell length) of 1 cm. The molar extinction coefficient of i-line (365 nm) (ε365) was calculated from the following equation.
[In the equation, […] represents the absorbance at 365 nm.]

[2] = Solvent solubility (butyl acetate, toluene or PGMEA); conditions: for Solvent solubility PGMEA / Solvent solubility Butyl acetate / Solvent solubility Toluene: 25° C.
Description: In a test tube, 0.1 g of the synthesized photoacid generator was placed, and an organic solvent (butyl acetate, toluene or PGMEA) was added thereto in 0.2 g portions under a condition where the temperature was adjusted to 25° C. until the photoacid generator was completely dissolved. In this connection, in the case where the photoacid generator was not completely dissolved even when 20 g of the solvent was added, the photoacid generator was evaluated as one that was not dissolved.

[3] = Thermal decomposition temperature (TG/DTA, 2% weight reduction); conditions: point of 2% weight reduction; 10° C./minute from 30° C. to 500° C.; nitrogen atmosphere
Description: The synthesized photoacid generator was measured for the change in weight under a temperature increasing condition of 10° C./minute from 30° C. to 500° C. under a nitrogen atmosphere using a thermal gravimetric/differential thermal analyzer (TG/DTA 6200, available from Seiko Instruments Inc.), and a point where the weight was reduced by 2% was defined as the thermal decomposition temperature.

| SMILES | Molar extinction coefficient [1] [L/mol/cm] | Solvent solubility PGMEA [2] [wt %] | Solvent solubility Butyl acetate [2] [wt %] | Solvent solubility Toluene [2] [wt %] | Thermal decomposition temperature [3] [°C] | solubility to a solvent (in words) ([2]; summary of Tables 4 to 6) |
| --- | --- | --- | --- | --- | --- | --- |
| CC(C)(C)Cc1cc2c3c(cc(CC(C)(C)C)cc3c1)C(=O)N(OS(=O)(=O)c1c(F)c(F)c(F)c(F)c1F)C2=O [Example A-34, 3,6-dineopentyl-1,8-naphthalimide pentafluorobenzenesulfonate] | 6200 | 11 | 14 | 8 | 250 |  |
| O=C(Oc1cc2c3c(cccc3c1)C(=O)N(OS(=O)(=O)c1c(F)c(F)c(F)c(F)c1F)C2=O)c1ccccc1 [Example A-31, 3-benzoyloxy-1,8-naphthalimide pentafluorobenzenesulfonate] | 1400 | 16 | 20 | 18 | 243 |  |
| CC1(C)C2CCC1(CS(=O)(=O)ON1C(=O)c3cccc4c(C(=O)Cc5ccccc5)ccc(c34)C1=O)C(=O)C2 (stereo not drawn) [Example A-44, 4-phenylacetyl-1,8-naphthalimide-(+)-10-camphorsulfonate] | 3000 | 1.8 | 1.4 | 1.8 | 233 |  |
| CC1(C)C2CCC1(CS(=O)(=O)ON1C(=O)c3cccc4cccc(c34)C1=O)C(=O)C2 (stereo not drawn) [A′-5, 1,8-naphthalimide-(+)-10-camphorsulfonate, reference compound] | 330 | <0.5 | <0.5 | <0.6 | 230 | insufficient |
| O=C1c2cccc3c(C(F)(F)C(F)(F)C(F)(F)C(F)(F)F)ccc(c23)C(=O)N1OS(=O)(=O)C(F)(F)F [Example A-16, 4-(nonafluorobutyl)-1,8-naphthalimide trifluoromethanesulfonate] | 40 | 22 | 25 | 28 | 239 |  |
| CC1(C)C2CCC1(CS(=O)(=O)ON1C(=O)c3cccc4c(C(F)(F)C(F)(F)C(F)(F)C(F)(F)C(F)(F)C(F)(F)C(F)(F)C(F)(F)F)ccc(c34)C1=O)C(=O)C2 (stereo not drawn) [Example A-57, 4-(heptadecafluoro-n-octyl)-1,8-naphthalimide-(+)-10-camphorsulfonate] | 80 | 9 | 9.5 | 10 | 246 |  |
| CC1(C)C2CC[C@@]1(CS(=O)(=O)ON1C(=O)c3cc(C45CC6CC(CC(C6)C4)C5)cc4cc(C56CC7CC(CC(C7)C5)C6)cc(c34)C1=O)C(=O)C2 [Example A-55, 3,6-diadamantyl-1,8-naphthalimide-(+)-10-camphorsulfonate] | 6000 | 1.7 | 2 | 2.1 | 253 |  |
| O=C1c2cccc3c(OCC(F)(F)C(F)F)ccc(c23)C(=O)N1OS(=O)(=O)C(F)(F)F [Example A-3, 4-(2,2,3,3-tetrafluoro-1-propoxy)-1,8-naphthalimide trifluoromethanesulfonate] | 12000 | 7.5 | 6 | 12 | 230 |  |
| CC1(C)C2CCC1(CS(=O)(=O)ON1C(=O)c3cccc4c(Cl)ccc(c34)C1=O)C(=O)C2 (stereo not drawn) [Example A-59, 4-chloro-1,8-naphthalimide-(+)-10-camphorsulfonate] | 6000 | 1.5 | 1.5 | 2.5 | 228 |  |
| O=C1c2cccc3c(Sc4ccccc4)ccc(c23)C(=O)N1OS(=O)(=O)C(F)(F)F [Example A-7, 4-phenylthio-1,8-naphthalimide trifluoromethanesulfonate] | 20000 | 5 | 7 | 7 | 240 |  |
| O=C1c2cccc3c(C(F)(F)C(F)(F)C(F)(F)C(F)(F)F)ccc(c23)C(=O)N1OS(=O)(=O)c1c(F)c(F)c(F)c(F)c1F [Example A-36, 4-(nonafluorobutyl)-1,8-naphthalimide pentafluorobenzenesulfonate] | 40 | 13 | 14 | 11 | 239 |  |
| CC(C)(C)c1cc2c3c(cc(C(C)(C)C)cc3c1)C(=O)N(OS(=O)(=O)C(F)(F)F)C2=O [Example A-13, 3,6-di-tert-butyl-1,8-naphthalimide trifluoromethanesulfonate] | 6500 | 8 | 8 | 7.5 | 245 |  |
| O=C(Oc1cc2c3c(cccc3c1)C(=O)N(OS(=O)(=O)C(F)(F)F)C2=O)c1ccccc1 [Example A-11, 3-benzoyloxy-1,8-naphthalimide trifluoromethanesulfonate] | 1400 | 20 | 25 | 23 | 241 |  |
| C[Si](C)(C)c1ccc2c3c(cccc13)C(=O)N(OS(=O)(=O)C(F)(F)F)C2=O [Example A-18, 4-trimethylsilyl-1,8-naphthalimide trifluoromethanesulfonate] | 5500 | 8 | 7.5 | 9 | 240 |  |
| CCCC(=O)Oc1cc2c3c(cccc3c1)C(=O)N(OS(=O)(=O)CC13CCC(CC1=O)C3(C)C)C2=O (stereo not drawn) [Example A-50, 3-butyroyloxy-1,8-naphthalimide-(+)-10-camphorsulfonate] | 1600 | 7.2 | 9 | 7 | 237 |  |
| C[Si](C)(C)c1ccc2c3c(cccc13)C(=O)N(OS(=O)(=O)c1c(F)c(F)c(F)c(F)c1F)C2=O [Example A-38, 4-trimethylsilyl-1,8-naphthalimide pentafluorobenzenesulfonate] | 5500 | 5.5 | 5.5 | 6 | 241 |  |
| O=C1c2cccc3c(Sc4ccccc4)ccc(c23)C(=O)N1OS(=O)(=O)c1c(F)c(F)c(F)c(F)c1F [Example A-27, 4-phenylthio-1,8-naphthalimide pentafluorobenzenesulfonate] | 20000 | 4 | 5.5 | 5.5 | 242 |  |
| O=C1c2cc(C34CC5CC(CC(C5)C3)C4)cc3cc(C45CC6CC(CC(C6)C4)C5)cc(c23)C(=O)N1OS(=O)(=O)c1c(F)c(F)c(F)c(F)c1F [Example A-35, 3,6-diadamantyl-1,8-naphthalimide pentafluorobenzenesulfonate] | 6000 | 5.5 | 6 | 9 | 251 |  |
| CCCOc1ccc2c3c(cccc13)C(=O)N(OS(=O)(=O)C(F)(F)F)C2=O [Example A-2, 4-n-propoxy-1,8-naphthalimide trifluoromethanesulfonate] | 14000 | 4 | 4.5 | 7.5 | 238 |  |
| O=C(Cc1ccccc1)c1ccc2c3c(cccc13)C(=O)N(OS(=O)(=O)c1c(F)c(F)c(F)c(F)c1F)C2=O [Example A-24, 4-phenylacetyl-1,8-naphthalimide pentafluorobenzenesulfonate] | 3000 | 3.2 | 3.5 | 5.5 | 242 |  |
